Experimental data published in ChEMBL document CHEMBL2321805, “N-methyldihydroquinazolinone derivatives of Retro-2 with enhanced efficacy against Shiga toxin” (J Med Chem, 2013).
Calls of active or inactive are those of the source. The rule behind the calls is not given here.

system: HeLa; test: Cytoprotective activity against shiga toxin-induced cytotoxicity in human HeLa cells at 30 uM incubated for 4 hrs prior to shiga toxin addition measured after 20 hrs by liquid scintillation counting analysis; type: functional, cell-based

Row | Compound | EC50
1 | Cc1ccc(C2N(C)c3ccccc3C(=O)N2c2ccccc2S(=O)(=O)c2ccccc2)s1 (racemic) | 8 µM
2 | Cc1ccc(C2Nc3ccc(F)cc3C(=O)N2c2ccccc2)s1 (racemic) | 10.6 µM
3 | O=C1c2ccccc2NC(c2ccc(Br)s2)N1c1ccccc1 (racemic) | 13.7 µM
4 | CSc1ccc(C2Nc3ccccc3C(=O)N2c2ccccc2)s1 (racemic) | 7.8 µM
5 | O=C1c2ccccc2NC(c2ccc(-c3cccs3)s2)N1c1ccccc1 (racemic) | 5.1 µM
6 | O=C1c2ccccc2NC(c2ccc(-c3ccccn3)s2)N1c1ccccc1 (racemic) | 12 µM
7 | O=C1c2ccccc2NC(c2ccc(-c3ccco3)s2)N1c1ccccc1 (racemic) | 4 µM
8 | CSc1ccc(C2N(C)c3ccccc3C(=O)N2c2ccccc2)s1 (racemic) | 4.8 µM
9 | Cc1ccc(C2N(C)c3ccccc3C(=O)N2c2ccccc2Cl)s1 (racemic) | 8.2 µM
10 | Cc1ccc(C2N(C)c3ccccc3C(=O)N2c2ccccc2I)s1 (racemic) | 5.4 µM
11 | COc1ccccc1N1C(=O)c2ccccc2N(C)C1c1ccc(C)s1 (racemic) | 5.4 µM
12 | CSc1ccccc1N1C(=O)c2ccccc2N(C)C1c1ccc(C)s1 (racemic) | 3.8 µM
13 | Cc1ccc(C2N(C)c3ccccc3C(=O)N2c2ccccc2F)s1 (racemic) | 5.5 µM
14 | Cc1ccc(C2Nc3ccccc3C(=O)N2c2ccccc2Cl)s1 (racemic) | 14.8 µM

system: HeLa; test: Cytoprotective activity against shiga toxin-induced cytotoxicity in human HeLa cells at 30 uM incubated for 4 hrs prior to shiga toxin addition measured after 20 hrs by liquid scintillation counting analysis relative to Retro-2; type: functional

Row | Compound | Activity
15 | Cc1ccc(C2Nc3ccccc3C(=O)N2[C@H]2C[C@@H]3CC[C@H]2C3)s1 (mixture of isomers) | 0%
16 | Cn1cc(C2Nc3ccccc3C(=O)N2c2ccccc2)c2ccccc21 (racemic) | 0%
17 | Cc1ccc(C2N(C)c3ccccc3C(=O)N2c2ccccc2S(=O)(=O)c2ccccc2)s1 (racemic) | 145%
18 | Cc1ccc(C2N(C)c3ccccc3C(=O)N2c2ccccc2[N+](=O)[O-])s1 (racemic) | 33%
19 | CN1c2ccccc2C(=O)N(c2ccccc2)C1c1ccc(C=O)s1 (racemic) | 0%
20 | CN1c2ccccc2C(=O)N(c2ccccc2)C1c1ccc(CO)s1 (racemic) | 0%
21 | Cc1ccc(C2Nc3ccc(F)cc3C(=O)N2c2ccccc2)s1 (racemic) | 167.2%
22 | Cc1ccc(C2Nc3cc(F)ccc3C(=O)N2c2ccccc2)s1 (racemic) | 0%
23 | Cc1ccc(C2N(c3ccccc3)C(=O)c3ccccc3N2C(=O)c2ccccc2)s1 (racemic) | 0%
24 | Cc1ccc(C2N(Cc3ccccc3)c3ccccc3C(=O)N2c2ccccc2)s1 (racemic) | 1%
25 | CCN1c2ccccc2C(=O)N(c2ccccc2)C1c1ccc(C)s1 (racemic) | 2.9%
26 | CCCN1c2ccccc2C(=O)N(c2ccccc2)C1c1ccc(C)s1 (racemic) | 0%
27 | CCCCN1c2ccccc2C(=O)N(c2ccccc2)C1c1ccc(C)s1 (racemic) | 0%
28 | O=C1c2ccccc2NC(c2ccccc2)N1c1ccccc1 (racemic) | 0%
29 | COc1cccc(C2Nc3ccccc3C(=O)N2c2ccccc2)c1 (racemic) | 0%
30 | COc1ccc(C2Nc3ccccc3C(=O)N2c2ccccc2)cc1 (racemic) | 10%
31 | CN(C)c1ccc(C2Nc3ccccc3C(=O)N2c2ccccc2)cc1 (racemic) | 48%
32 | O=C1c2ccccc2NC(c2cccnc2)N1c1ccccc1 (racemic) | 0%
33 | O=C1c2ccccc2NC(c2cccs2)N1c1ccccc1 (racemic) | 0%
34 | O=C1c2ccccc2NC(c2ccc(Br)s2)N1c1ccccc1 (racemic) | 146%
35 | CSc1ccc(C2Nc3ccccc3C(=O)N2c2ccccc2)s1 (racemic) | 249%
36 | O=C1c2ccccc2NC(c2ccc(-c3cccs3)s2)N1c1ccccc1 (racemic) | 111.6%

Row | Compound | Activity
37 | O=C1c2ccccc2NC(c2ccc(-c3ccccn3)s2)N1c1ccccc1 (racemic) | 468%
38 | O=C1c2ccccc2NC(c2ccc(-c3ccco3)s2)N1c1ccccc1 (racemic) | 438%
39 | Cc1ccc(C2Nc3ccccc3C(=O)N2C23CC4CC(CC(O)(C4)C2)C3)s1 (racemic) | 0%
40 | Cc1ccc(C2Nc3ccccc3C(=O)N2Cc2ccccc2)s1 (racemic) | 0%
41 | Cc1ccc(C2Nc3ccccc3C(=O)N2C2CCCCC2)s1 (racemic) | 0%
42 | CCCCN1C(=O)c2ccccc2NC1c1ccc(C)s1 (racemic) | 0%
43 | CCC(C)N1C(=O)c2ccccc2NC1c1ccc(C)s1 (racemic) | 0%
44 | Cc1ccc(C2Nc3ccccc3C(=O)N2C(C)C)s1 (racemic) | 0%
45 | COc1ccc(CCN2C(=O)c3ccccc3NC2c2ccc(C)s2)cc1 (racemic) | 0%
46 | Cc1ccc(C2Nc3ccccc3C(=O)N2c2ccc(-c3ccccc3)cc2)s1 (racemic) | 0%
47 | Cc1ccc(C2Nc3ccccc3C(=O)N2c2ccc(C#N)cc2)s1 (racemic) | 0%
48 | Cc1ccc(C2Nc3ccccc3C(=O)N2c2cccc(C(F)(F)F)c2)s1 (racemic) | 0%
49 | Cc1ccc(C2Nc3ccccc3C(=O)N2c2cccnc2)s1 (racemic) | 0%
50 | CN1c2ccccc2C(=O)N(c2ccccc2)C1c1ccc(CNCc2ccccc2)s1 (racemic) | 6.2%
51 | CN1c2ccccc2C(=O)N(c2ccccc2)C1c1ccc(CCl)s1 (racemic) | 0%
52 | CSc1ccc(C2N(C)c3ccccc3C(=O)N2c2ccccc2)s1 (racemic) | 265.9%
53 | CN1c2ccccc2C(=O)N(c2ccccc2)C1c1ccc(Sc2ccccc2)s1 (racemic) | 75.5%
54 | CN1c2ccccc2C(=O)N(c2ccccc2)C1c1ccc(C#N)s1 (racemic) | 0%
55 | COc1ccc(-c2ccc(C3N(C)c4ccccc4C(=O)N3c3ccccc3)s2)cc1OC (racemic) | 1.5%
56 | CN1c2ccccc2C(=O)N(c2ccccc2)C1c1ccc(-c2cccc([N+](=O)[O-])c2)s1 (racemic) | 0%
57 | COC(=O)c1ccc(-c2ccc(C3N(C)c4ccccc4C(=O)N3c3ccccc3)s2)cc1 (racemic) | 2.9%
58 | CC(=O)c1ccc(-c2ccc(C3N(C)c4ccccc4C(=O)N3c3ccccc3)s2)cc1 (racemic) | 0.7%

Row | Compound | Activity
59 | CN1c2ccccc2C(=O)N(c2ccccc2)C1c1ccc(-c2ccc(Oc3ccccc3)cc2)s1 (racemic) | 15.7%
60 | COc1cc(-c2ccc(C3N(C)c4ccccc4C(=O)N3c3ccccc3)s2)cc(OC)c1OC (racemic) | 0%
61 | COc1ccc(-c2ccc(C3N(C)c4ccccc4C(=O)N3c3ccccc3)s2)cc1 (racemic) | 26.2%
62 | Cc1ccc(-c2ccc(C3N(C)c4ccccc4C(=O)N3c3ccccc3)s2)cc1[N+](=O)[O-] (racemic) | 0%
63 | CN1c2ccccc2C(=O)N(c2ccccc2)C1c1ccc(-c2ccc(C#N)cc2)s1 (racemic) | 0%
64 | CN1c2ccccc2C(=O)N(c2ccccc2)C1c1ccc(-c2csc3ccccc23)s1 (racemic) | 0%
65 | CN1c2ccccc2C(=O)N(c2ccccc2)C1c1ccc(-c2ccc3ccccc3c2)s1 (racemic) | 9.7%
66 | CN1c2ccccc2C(=O)N(c2ccccc2)C1c1ccc(-c2cccc3ccccc23)s1 (racemic) | 0%
67 | CN1c2ccccc2C(=O)N(c2ccccc2)C1c1ccc(-c2ccc3[nH]ccc3c2)s1 (racemic) | 0%
68 | CN1c2ccccc2C(=O)N(c2ccccc2)C1c1ccc(-c2ccccn2)s1 (racemic) | 94.6%
69 | CN1c2ccccc2C(=O)N(c2ccccc2)C1c1ccc(-c2ccoc2)s1 (racemic) | 74.7%
70 | CN1c2ccccc2C(=O)N(c2ccccc2)C1c1ccc(-c2cccs2)s1 (racemic) | 84%
71 | CN1c2ccccc2C(=O)N(c2ccccc2)C1c1ccc(-n2cccc2)s1 (racemic) | 12%
72 | Cc1ccc(C2N(C)c3ccccc3C(=O)N2c2ccccc2Cl)s1 (racemic) | 230%
73 | Cc1ccc(C2N(C)c3ccccc3C(=O)N2c2ccccc2I)s1 (racemic) | 254%
74 | COc1ccccc1N1C(=O)c2ccccc2N(C)C1c1ccc(C)s1 (racemic) | 264.4%
75 | CSc1ccccc1N1C(=O)c2ccccc2N(C)C1c1ccc(C)s1 (racemic) | 150.6%
76 | Cc1ccc(C2N(C)c3ccccc3C(=O)N2c2ccccc2F)s1 (racemic) | 208.6%
77 | Cc1ccc(C2N(C)c3ccccc3C(=O)N2c2ccccc2Br)s1 (racemic) | 10.5%
78 | Cc1ccc(C2N(C)c3ccccc3C(=O)N2c2ccccc2C#N)s1 (racemic) | 54%
79 | Cc1ccc(C2N(C)c3ccccc3C(=O)N2c2ccccc2Oc2ccccc2)s1 (racemic) | 23%
80 | Cc1ccc(C2N(C)c3ccccc3C(=O)N2c2ccccc2Sc2ccccc2)s1 (racemic) | 9.6%

Row | Compound | Activity
81 | Cc1ccc(C2N(C)c3ccccc3C(=O)N2c2ccccc2-c2ccccc2)s1 (racemic) | 99%
82 | Cc1ccc(C2N(C)c3ccccc3C(=O)N2c2ccccc2Cc2ccccc2)s1 (racemic) | 1%
83 | Cc1ccc(C2N(C)c3ccccc3C(=O)N2c2ccccc2C(F)(F)F)s1 (racemic) | 3%
84 | Cc1ccc(C2N(C)c3ccccc3C(=O)N2c2ccccc2OC(F)(F)F)s1 (racemic) | 4.4%
85 | Cc1ccc(C2N(C)c3ccccc3C(=O)N2c2ccccc2OCc2ccccc2)s1 (racemic) | 9.8%
86 | Cc1ccsc1C1Nc2ccccc2C(=O)N1c1ccccc1 (racemic) | 0%
87 | Cc1csc(C2Nc3ccccc3C(=O)N2c2ccccc2)c1 (racemic) | 1%
88 | CCCc1ccc(C2Nc3ccccc3C(=O)N2c2ccccc2)s1 (racemic) | 54%
89 | Cc1ccc(C2Nc3ccccc3C(=O)N2c2ccncc2)s1 (racemic) | 0%
90 | Cc1ccc(C2Nc3ccccc3C(=O)N2c2ccncn2)s1 (racemic) | 0.5%
91 | Cc1ccc(C2Nc3ccccc3C(=O)N2c2ccc(Br)cc2)s1 (racemic) | 0%
92 | Cc1ccc(C2Nc3ccccc3C(=O)N2c2cccc(Br)c2)s1 (racemic) | 0%
93 | Cc1ccc(C2Nc3ccccc3C(=O)N2c2ccccc2Br)s1 (racemic) | 0%
94 | Cc1ccc(C2Nc3ccccc3C(=O)N2c2ccc(Cl)cc2)s1 (racemic) | 0%
95 | Cc1ccc(C2Nc3ccccc3C(=O)N2c2cccc(Cl)c2)s1 (racemic) | 54%
96 | Cc1ccc(C2Nc3ccccc3C(=O)N2c2ccccc2Cl)s1 (racemic) | 211%
97 | CSc1ccccc1N1C(=O)c2ccccc2NC1c1ccc(C)s1 (racemic) | 75%
98 | Cc1ccc(C2Nc3c(C)cccc3C(=O)N2c2ccccc2)s1 (racemic) | 4%
99 | Cc1ccc2c(c1)C(=O)N(c1ccccc1)C(c1ccc(C)s1)N2 (racemic) | 11.2%
100 | COc1ccc2c(c1)C(=O)N(c1ccccc1)C(c1ccc(C)s1)N2 (racemic) | 2%
101 | Cc1ccc(C2N(C)c3ccccc3C(=O)N2c2ccccc2)s1 (single isomer, unassigned; form 1) | inactive
102 | Cc1ccc(C2N(C)c3ccccc3C(=O)N2c2ccccc2)s1 (single isomer, unassigned; form 2) | Active
